A short description of assay [1]: Dynavision D2 Mode A (proactive) visuomotor reaction time task before and after a 3-minute all-out cycling test (3 MT). Format: in vivo, human. Conditions: at 60 P; p=0.028. As to the method:
(§1) This study followed a double-blind, randomized cross-over design. Participants were randomized to either PeakATP or Placebo and consumed their assigned supplement for a period of 14-days. Following supplementation, participants reported back to the lab within 24-hours for the first of two experimental trials, which occurred in a randomized, counterbalanced cross-over fashion. During experimental trial 1 (T1), participants ingested an acute dose of their assigned supplement 30 minutes before completing pre-testing assessments (Dynavision D2) followed by a 3-minute all-out high-intensity effort (3 MT) on a cycle ergometer. […]
(§2) A convenience sample of healthy, recreationally active individuals were recruited. […] To be included in this study, participants were required to be healthy and ready for activity as determined by physical activity readiness questionnaire (Par-Q+) and Medical History questionnaire (MHQ), be classified as recreationally active (≥150 minutes exercise per week) and not be taking and be willing to abstain from creatine or beta-alanine supplementation or be willing to complete a 4-week wash-out period prior to enrolling if taking creatine or beta-alanine and be willing to abstain from supplementing with either for the duration of the study. […]
(§3) Reaction time was assessed using the Dynavision D2 visuomotor training device. […]

Assay [2] in a line: Dynavision D2 Mode B (reactive) visuomotor reaction time task with cognitive stressor before and after a 3-minute all-out cycling test (3 MT). Format: in vivo, human. As for the experimental part: as §1, §2, §3
The conditions of assay [3]: 225 mg per day enteric-coated ATP for 15 days; cited from earlier work.
For assay [4] the following is noted: 400 mg per day ATP for 15 days; cited from earlier work.

These results are taken from patent US20240299435A1, “COMPOSITIONS CONTAINING ADENOSINE TRIPHOSPHATE (ATP) AND METHODS OF USE FOR COGNITIVE FUNCTION” (priority 2021, published 2024).

Structures are written as SMILES.

With `Nc1ncnc2c1ncn2[C@@H]1O[C@H](COP(=O)(O)OP(=O)(O)OP(=O)(O)O)[C@@H](O)[C@H]1O` [ATP, adenosine-5′-triphosphate], the “Mode A number of hits compared to placebo” value in assay [1] was “significantly greater”. Further, the “Mode B avgRT compared to PRE” value in assay [2] (at IP (p=0.015) and 60 P (p=0.001)) was “significantly faster”. For the same molecule, the “Mode B avgRT compared to placebo” value in assay [2] (at any time point, p's>0.05) is on record as “not significantly different”. Moreover, the “total bench press lifting volume and within-group set-one repetitions to failure” value in assay [3] is recorded as “increased”. Moreover, in assay [4], the “minimum peak torque in set two of a knee extensor bout” value is “increased”.
